These results are taken from US6566088B1, “Prolyl-4-hydroxylases” (Board of Regents, The University of Texas System, priority 2001, dated 2003).

Counter-ions that a name gives are not always drawn. Like-named read-outs stand apart in the source and are kept apart here.

Data set [1] addresses T1, HPH 2 (Homo sapiens, UniProt Q9GZT9, DEL76-177).
T1 construct: MBP (N); made in house; host or cells: E. coli BL21-CodonPlus-RIL
Description: Activity of purified recombinant HPH 2 on HIF-1a peptide substrate. The conditions noted are these: additive added (CoCl2 in excess). The class given is biochemical.

Data set [2] addresses human HIF-1a ODD peptide (Homo sapiens, UniProt Q16665, M561A/M568A). In words: [35S]-pVHL pull-down prolyl hydroxylase assay with biotinylated HIF-1a ODD peptide. The data set is classed as biochemical. The conditions noted are these: enzyme in vitro transcribed/translated in rabbit reticulocyte lysate; ascorbate, 2-oxoglutarate, FeSO4 present.
Data set [3] deals with prolyl-4-hydroxylase activity capable of modifying a proline-containing peptide derived from the ODD. The note with it: cited from earlier work.

T1 sequence (Q9GZT9 with tags, fused parts or gaps DEL76-177): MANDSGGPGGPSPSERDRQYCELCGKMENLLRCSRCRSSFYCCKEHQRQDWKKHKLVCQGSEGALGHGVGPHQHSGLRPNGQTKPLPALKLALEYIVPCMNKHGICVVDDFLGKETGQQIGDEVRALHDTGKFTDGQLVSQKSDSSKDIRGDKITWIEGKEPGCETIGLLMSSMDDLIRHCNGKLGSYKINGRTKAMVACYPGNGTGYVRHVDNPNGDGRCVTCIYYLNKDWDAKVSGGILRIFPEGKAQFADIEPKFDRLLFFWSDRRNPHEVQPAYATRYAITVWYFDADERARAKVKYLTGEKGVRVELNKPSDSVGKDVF

Regarding `O=S(=O)([O-])[O-].[Fe+2]` [FeSO4], the “effect on activity of the HPH 2 enzyme” value in data set [1] was “greatly stimulated”.
Turning to “HPH 3: human HPH 1 paralog, Genbank BC001723”, the “prolyl hydroxylase activity (pVHL association with the biotinylated peptide)” value in data set [2] was “catalyze the hydroxylation”.
Take CoCl2: in data set [3], the “prolyl-4-hydroxylase activity in extracts” value is reported as “greatly diminished”.
`CC(=O)N(O)CCCCCNC(=O)CCC(=O)N(O)CCCCCNC(=O)CCC(=O)N(O)CCCCCN` [deferoxamine mesylate]: the “prolyl-4-hydroxylase activity in extracts” value in data set [3] (extracts prepared in the presence of hypoxia mimics) is reported as “greatly diminished”.
